Holding throughout (assay type): in vivo
One assay relates to ICR mice. Description: Triglyceride (TG) in blood plasma increase-inhibiting action due to lipid administration. To be noted: Mus musculus; male ICR mice, 5 mg/kg oral, lipid (Intralipos 20%) after 30 minutes, plasma TG 2 hours after lipid; read-out: Inhibiting rate of TG-increase in blood plasma (5 mg/kg). The method in brief: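 Male ICR mice (6–9 weeks), fasted overnight, dosed orally with compound in 0.2% CMC; oral lipid emulsion (10 mL/kg) 30 min later. Plasma TG from tail vein before and 2 h after lipid load; rise in TG expressed as percent inhibition versus vehicle group.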

A further assay deals with KK-Ay mice. Briefly: Weight gain-inhibiting action, hypoglycemic effect, insulin in blood plasma lowering action in KK-Ay mice. The note with it: male KK-Ay mice, high fat diet, 2 weeks; for inhibition in vivo at 30 mg/kg: Mus musculus, 336 h, 30 mg/kg/day oral. As to the method:
To 8 weeks-old male KK-Ay mice were provided high fat diet (Oriental Yeast Co., Ltd, 60 cal % fat), and Test compound suspended in 0.2% carboxymethylcellulose solution was orally administered once a day. Oral administration was continued for 2 weeks, and a weight gain-inhibiting rate of the Test compound was calculated by using a weight gain amount of the solvent control group during the test period as 100%. After final administration, the mice were fasted overnight, and blood was collected from tail vein. Measurement of a blood-sugar level was carried out by using glucose Cα Test Wako (Wako Pure Chemical Industries, Ltd.), and measurement of insulin in blood plasma was carried out by using a mouse insulin measurement kit (Morinaga Institute of Biological Science, Inc.).

The next assay concerns C57BL/6J mice. Briefly: Antifeeding activity (high fat diet intake up to 4 hours). The note with it: Mus musculus, male C57BL/6J mice, 5 mg/kg oral, food ingested up to 4 hours, read-out: Antifeeding rate (5 mg/kg).
Setting [1] is: read-out: Hypoglycemic action (30 mg/kg/day).
Setting [2] is: read-out: Insulin in blood plasma-lowering action (30 mg/kg/day).
Where [3] appears, read: read-out: Weight gain-inhibiting action (30 mg/kg/day).
Setting [4] is: administration dose of 10 mg/kg/day oral.

This is an account of results in patent publication US9302996B2, “Continuous arycyclic compound” (MITSUBISHI TANABE PHARMA CORPORATION, priority 2010, dated 2016).

The structures appear in SMILES notation. Read-outs that look alike come from different tables or passages of the source. Marks after values point to notes of the source that are not given here.

Turning to `CC(C)(COc1ccc(-c2ccc(-c3ncc(C(F)(F)F)[nH]3)cc2)cn1)C(=O)O` [Example 3-3), 2,2-dimethyl-3-[(5-{4-[5-(trifluoromethyl)-1H-imidazol-2-yl]phenyl}pyridin-2-yl)oxy]propanoic acid], the values for the inhibition in vivo at 5 mg/kg with ICR mice and with C57BL/6J mice were 78% and 76%, respectively. Moreover, the inhibition in vivo at 30 mg/kg in the assay on KK-Ay mice (setting [1]) was 41%; with KK-Ay mice (setting [2]) it was 51%; in the assay on KK-Ay mice (setting [3]), 52%.

As to `Cc1cc(OCC(C)(C)C(=O)O)ncc1-c1cnc(-c2ncc(C(F)(F)F)[nH]2)c(C)c1` [Example 114], the inhibition in vivo at 5 mg/kg in the assay on ICR mice was determined as 64%; with C57BL/6J mice, 59%. The inhibition in vivo at 30 mg/kg came to 48% with KK-Ay mice (setting [1]), 60% with KK-Ay mice (setting [2]) and 45% in the assay with KK-Ay mice (setting [3]).

On to `Cc1cc(OCC(C)(C)C(=O)O)ncc1-c1cnc(-c2ncc(C(F)(F)F)[nH]2)c(Cl)c1` [Example 112], for which the inhibition in vivo at 5 mg/kg in the assay with ICR mice came to 67%; in the assay on C57BL/6J mice, 52%. For the same compound, the inhibition in vivo at 30 mg/kg stood at 49% in the assay with KK-Ay mice (setting [1]), 61% in the assay with KK-Ay mice (setting [2]) and 47% in the assay on KK-Ay mice (setting [3]).

For `Cc1cc(OCC(C)(C)C(=O)O)ncc1-c1ccc(-c2ncc(C(F)(F)F)[nH]2)cc1` [Example 73], the inhibition in vivo at 5 mg/kg in the assay with ICR mice was found to be 88%; in the assay on C57BL/6J mice it was 82%. Further, the inhibition in vivo at 30 mg/kg worked out at 40% in the assay with KK-Ay mice (setting [1]), 69% in the assay on KK-Ay mice (setting [2]) and 62% in the assay on KK-Ay mice (setting [3]).

In the case of `Cc1cc(OCC(C)(C)C(=O)O)ncc1-c1ccc(-c2ncc(C3(C(F)(F)F)CC3)[nH]2)nc1` [Example 36], the inhibition in vivo at 5 mg/kg in the assay on ICR mice came out at 69%; in the assay with C57BL/6J mice, 63%. The inhibition in vivo at 30 mg/kg was 23% with KK-Ay mice (setting [1]), 19% in the assay with KK-Ay mice (setting [2]) and 59% in the assay with KK-Ay mice (setting [3]).

With `CC(C)(COc1cnc(-c2ccc(-c3ncc(C(F)(F)F)[nH]3)nc2)cn1)C(=O)O` [Example 92], the inhibition in vivo at 5 mg/kg in the assay on ICR mice came out at 74%; with C57BL/6J mice, 66%. For the same compound, the values for the inhibition in vivo at 30 mg/kg in the assay on KK-Ay mice (setting [1]), in the assay on KK-Ay mice (setting [2]) and with KK-Ay mice (setting [3]) were 63%, 58% and 60%, respectively.

For the compound `Cc1cc(OCC(C)(C)C(=O)O)ncc1-c1ccc(-c2ncc(CC3CC3)[nH]2)c(F)c1` [Example 96-2), 3-[(5-{4-[5-(cyclopropylmethyl)-1H-imidazol-2-yl]-3-fluorophenyl}-4-methylpyridin-2-yl)oxy]-2,2-dimethylpropanoic acid], the inhibition in vivo at 5 mg/kg with ICR mice is 48%; in the assay with C57BL/6J mice, 58%. For the same compound, the figures for the inhibition in vivo at 30 mg/kg with KK-Ay mice (setting [1]), in the assay with KK-Ay mice (setting [2]) and in the assay with KK-Ay mice (setting [3]) were 66%, 71% and 75%, respectively.

As to `Cc1cc(OCC(C)(C)C(=O)O)ncc1-c1cnc(-c2ncc(C(F)(F)F)[nH]2)cn1` [Example 95-6), 2,2-dimethyl-3-[(4-methyl-5-{5-[5-(trifluoromethyl)-1H-imidazol-2-yl]pyrazin-2-yl}pyridin-2-yl)oxy]propanoic acid], the inhibition in vivo at 5 mg/kg with ICR mice turned out to be 70%; in the assay on C57BL/6J mice, 83%. The inhibition in vivo at 30 mg/kg in the assay on KK-Ay mice (setting [1]) came to 66%; in the assay with KK-Ay mice (setting [2]) it was 58%; with KK-Ay mice (setting [3]), 75%.

For `CC(C)Cc1cnc(-c2ccc(-c3ccc(OCC(C)(C)C(=O)O)cc3)nc2)[nH]1` [Example 26], the results for the inhibition in vivo at 5 mg/kg in the assay with ICR mice and in the assay with C57BL/6J mice were 67% and 79%, respectively. In addition, the inhibition in vivo at 30 mg/kg with KK-Ay mice (setting [1]) came to 40%; in the assay with KK-Ay mice (setting [2]), 27%; in the assay with KK-Ay mice (setting [3]), 44%.

As to `CC(C)(COc1ccc(-c2ccc(-c3ncc(C(F)(F)C(F)(F)F)[nH]3)cn2)cc1)C(=O)O` [Example 69], in the assay with ICR mice, the inhibition in vivo at 5 mg/kg was found to be 85%. In addition, in the assay on KK-Ay mice (setting [4]), the Hypoglycemic action was 61%^#, the “Insulin in blood plasma-lowering action” value was determined as 37%^# and the Weight gain-inhibiting action was 43%^#. In addition, the inhibition in vivo at 5 mg/kg in the assay on C57BL/6J mice was found to be 87%.

For the compound `CC(C)(COc1ccc(-c2ccc(-c3ncc(C4CC(F)(F)C4)[nH]3)cn2)cc1)C(=O)O` [Example 33], the results for the inhibition in vivo at 5 mg/kg with ICR mice and in the assay with C57BL/6J mice were 54% and 44%, respectively. The inhibition in vivo at 30 mg/kg in the assay on KK-Ay mice (setting [1]) is 42%; in the assay on KK-Ay mice (setting [2]) it was 41%; in the assay on KK-Ay mice (setting [3]) it was 39%.

`Cc1cc(OCC(C)(C)C(=O)O)ncc1-c1ccc(-c2ncc(C(F)(F)F)[nH]2)c(F)c1` [Example 62-3), 3-[(5-{3-fluoro-4-[5-(trifluoromethyl)-1H-imidazol-2-yl]phenyl}-4-methylpyridin-2-yl)oxy]-2,2-dimethylpropanoic acid]: the inhibition in vivo at 5 mg/kg in the assay on ICR mice was 85%; in the assay with C57BL/6J mice, 63%. For the same compound, the inhibition in vivo at 30 mg/kg with KK-Ay mice (setting [1]) came out at 80%; with KK-Ay mice (setting [2]) it was 95%; in the assay with KK-Ay mice (setting [3]), 161%.

On to `CC(C)(COc1ccc(-c2ccc(-c3ncc(C(F)(F)F)[nH]3)nc2)cn1)C(=O)O` [Example 66], for which the results for the inhibition in vivo at 5 mg/kg in the assay on ICR mice and in the assay on C57BL/6J mice were 83% and 76%, respectively. Besides, the inhibition in vivo at 30 mg/kg in the assay with KK-Ay mice (setting [1]) stood at 10%; in the assay on KK-Ay mice (setting [2]), 38%; in the assay with KK-Ay mice (setting [3]) it was 46%.

Consider `CC(C)(COc1ccc(-c2ccc(-c3ncc(C(F)(F)F)[nH]3)c(F)c2)cn1)C(=O)O` [Example 76], for which the values for the inhibition in vivo at 5 mg/kg in the assay on ICR mice and in the assay with C57BL/6J mice were 78% and 61%, respectively. The inhibition in vivo at 30 mg/kg with KK-Ay mice (setting [1]) is 65%; in the assay with KK-Ay mice (setting [2]) it was 81%; in the assay with KK-Ay mice (setting [3]), 69%.

Take `Cc1cc(OCC(C)(C)C(=O)O)ncc1-c1ccc(-c2ncc(C3(C(F)(F)F)CC3)[nH]2)c(F)c1` [Example 54-4), 3-{[5-(3-fluoro-4-{5-[1-(trifluoromethyl)cyclopropyl]-1H-imidazol-2-yl]phenyl)-4-methylpyridin-2-yl}oxy}-2,2-dimethylpropanoic acid]: the figures for the inhibition in vivo at 5 mg/kg in the assay with ICR mice and in the assay with C57BL/6J mice were 74% and 46%, respectively. The inhibition in vivo at 30 mg/kg with KK-Ay mice (setting [1]) worked out at 74%; in the assay on KK-Ay mice (setting [2]) it was 93%; with KK-Ay mice (setting [3]), 113%.

Turning to `Cc1cc(OCC(C)(C)C(=O)O)ncc1-c1ccc(-c2ncc(C(F)(F)F)[nH]2)cn1` [Example 72], the results for the inhibition in vivo at 5 mg/kg with ICR mice and in the assay with C57BL/6J mice were 85% and 65%, respectively. In addition, the inhibition in vivo at 30 mg/kg stood at 38% in the assay on KK-Ay mice (setting [1]), 28% in the assay with KK-Ay mice (setting [2]) and 43% in the assay on KK-Ay mice (setting [3]).

`Cc1cc(OCC(C)(C)C(=O)O)ncc1-c1ccc(-c2ncc(C(F)(F)F)[nH]2)c(Cl)c1` [Example 63-3), 3-[(5-{3-chloro-4-[5-(trifluoromethyl)-1H-imidazol-2-yl]phenyl}-4-methylpyridin-2-yl)oxy]-2,2-dimethylpropanoic acid]: the inhibition in vivo at 5 mg/kg in the assay with ICR mice turned out to be 60%; with C57BL/6J mice, 83%. The results for the inhibition in vivo at 30 mg/kg with KK-Ay mice (setting [1]), with KK-Ay mice (setting [2]) and with KK-Ay mice (setting [3]) were 77%, 90% and 115%, respectively.

For `Cc1cc(OCC(C)(C)C(=O)O)ncc1-c1ccc(-c2ncc(C3(C(F)(F)F)CC3)[nH]2)cc1` [Example 39], the inhibition in vivo at 5 mg/kg was 54% with ICR mice and 76% with C57BL/6J mice. The values for the inhibition in vivo at 30 mg/kg with KK-Ay mice (setting [1]), with KK-Ay mice (setting [2]) and with KK-Ay mice (setting [3]) were 44%, 50% and 38%, respectively.

Take `Cc1cc(OCC2(C(=O)O)CCC2)ccc1-c1ccc(-c2ncc(C(F)(F)F)[nH]2)cn1` [Example 70]: the inhibition in vivo at 5 mg/kg with ICR mice came to 67%; in the assay on C57BL/6J mice, 59%. Besides, the inhibition in vivo at 30 mg/kg in the assay with KK-Ay mice (setting [1]) was found to be 52%; in the assay on KK-Ay mice (setting [2]), 27%; in the assay on KK-Ay mice (setting [3]), 45%.

On to `Cc1cc(OCC(C)(C)C(=O)O)ncc1-c1ccc(-c2ncc(CC(C)C)[nH]2)nc1` [Example 117], for which the inhibition in vivo at 5 mg/kg was 57% in the assay on ICR mice and 55% with C57BL/6J mice. Also, the values for the inhibition in vivo at 30 mg/kg in the assay with KK-Ay mice (setting [1]), with KK-Ay mice (setting [2]) and in the assay on KK-Ay mice (setting [3]) were 36%, 35% and 31%, respectively.

As to `Cc1cc(OCC(C)(C)C(=O)O)ncc1-c1ccc(-c2ncc(CC(C)C)[nH]2)c(F)c1` [Example 119], the values for the inhibition in vivo at 5 mg/kg with ICR mice and in the assay with C57BL/6J mice were 67% and 51%, respectively. The inhibition in vivo at 30 mg/kg in the assay with KK-Ay mice (setting [1]) amounted to 40%; with KK-Ay mice (setting [2]) it was 28%; in the assay with KK-Ay mice (setting [3]), 36%.

In the case of `CC(C)(COc1ccc(-c2ccc(-c3ncc(C4(C(F)(F)F)CC4)[nH]3)cn2)cc1)C(=O)O` [Example 6-3), sodium 2,2-dimethyl-3-[4-(5-{5-[1-(trifluoromethyl)cyclopropyl]-1H-imidazol-2-yl]pyridin-2-yl}phenoxy)propanoate], the inhibition in vivo at 5 mg/kg stood at 78% in the assay on ICR mice and 71% in the assay with C57BL/6J mice. Moreover, the results for the inhibition in vivo at 30 mg/kg in the assay on KK-Ay mice (setting [1]) and in the assay on KK-Ay mice (setting [2]) were 63% and 72%, respectively.
